Results from patent US20080280879A1, “SUBSTITUTED HETEROCYCLIC DERIVATIVES AND THEIR PHARMACEUTICAL USE AND COMPOSITIONS” (priority 2007, published 2008).
Converted amounts (≈) assume the structure as drawn. “And” between values parts separate entries of the source, which are not always exact repeats. Identical values can stand only once.

Experiments:
Type in all cases: cell-based, Staphylococcus aureus
[1] = system: Staph aureus 1095 MRSA; test: MIC, microtiter broth dilution (CLSI M7-A7), Assay 1, Table 12 column A, no serum; details: Assay 1, no serum; for MIC: Staphylococcus aureus, MRSA
In short: (§1)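 Broth microdilution in microtiter trays per CLSI M7-A7, interpreted per M100-S16; MIC (μg/ml) is the lowest concentration preventing macroscopically visible growth. Compounds were dissolved in DMSO at 10 mg/ml. Serum-containing runs used Mueller-Hinton Broth with 50% pooled inactivated human serum; repeated runs are reported as geometric means.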

[2] = system: Staph aureus 1146; test: MIC, microtiter broth dilution (CLSI M7-A7), Assay 1, Table 12 column B, no serum; details: for MIC, column B: Staph aureus 1146, Assay 1, no serum
In short: as §1

[3] = system: Staph aureus 1146; test: MIC in Mueller-Hinton Broth with 50% pooled inactivated human serum, Assay 1, Table 12; details: for MIC, column C: Staph aureus 1146, Assay 1, 50% human serum
In short: as §1

[4] = system: Staph aureus 2811; test: MIC, microtiter broth dilution (CLSI M7-A7), Assay 1, Table 12 column D, no serum; details: for MIC, column D: Staph aureus 2811, Assay 1, no serum
In short: as §1

[5] = system: Staph aureus 2812; test: MIC, microtiter broth dilution (CLSI M7-A7), Assay 1, Table 12 column E, no serum; details: for MIC, column E: Staph aureus 2812, Assay 1, no serum; for MIC: Staphylococcus aureus, 2812, Staph aureus 2812, Assay 1, no serum
In short: as §1

[6] = system: Staph aureus 1031; test: MIC, microtiter broth dilution (CLSI M7-A7), Assay 2, Table 12 column F, no serum; details: for MIC, column F: Staph aureus 1031, Assay 2, no serum; for MIC: Staphylococcus aureus, 1031, Staph aureus 1031, Assay 2, no serum
Protocol: (§2) The assays described herein include a panel of bacterial isolates of Staphylococcus aureus. Assay 1 comprises the strains noted in Columns A through E, and Assay 2 comprises the strains noted in Columns F through H. The assays are performed in microtiter trays according to Methods for Dilution Antimicrobial Susceptibility Tests for Bacteria that Grow Aerobically; Approved Standard-7th edition (M7-A7) and interpreted according to the Performance Standards for Antimicrobial Susceptibility Testing; 16th Informational Supplement (M100-S16) published by Clinical Laboratory Standards Institute (CLSI). The antibacterial activity is presented in the form of a minimum inhibitory concentration (MIC) value in μg/ml format. The MIC value represents the lowest concentration of drug measured which prevented macroscopically visible growth under the conditions and specific doses tested. The compounds were initially dissolved in DMSO as 30 mM stocks and diluted accordingly to adjust to a concentration of 10 mg/ml or the compounds were dissolved in DMSO at a concentration of 10 mg/ml. For assessment of activity in the presence of human serum, S. aureus 1146 and S. aureus 1031 were inoculated into Mueller-Hinton Broth with 50% pooled inactivated human serum. In some cases, compounds were tested more than once in a particular assay. Where noted, the MIC value shown in Table 12 represents the geometric mean of the data from multiple runs.
(§3) It should be understood that the data in columns A-H represents MIC data in μg/ml and the notation “<=” means ‘less than or equal to’.

[7] = system: Staph aureus 1031; test: MIC in Mueller-Hinton Broth with 50% pooled inactivated human serum, Assay 2, Table 12 column G; details: for MIC, column G: Staph aureus 1031, Assay 2, 50% human serum; for MIC: Staphylococcus aureus, 1031, Staph aureus 1031, Assay 2, 50% human serum
Protocol: as §2, §3

[8] = system: Staph aureus 2810; test: MIC, microtiter broth dilution (CLSI M7-A7), Assay 2, Table 12 column H, no serum; details: for MIC, column H: Staph aureus 2810, Assay 2, no serum; for MIC: Staphylococcus aureus, 2810, Staph aureus 2810, Assay 2, no serum
Protocol: as §2, §3

| Compound | MIC [6] [µg/mL] | MIC [7] [µg/mL] | MIC [8] [µg/mL] | also measured |
| --- | --- | --- | --- | --- |
| 4-{[2-(3-chloro-6-methoxyquinolin-4-yl)ethyl]amino}-1-[(2-phenylcyclopropyl)ethyl]zepane-4-carboxylic acid [Example 151] |  |  |  | MIC, column A [1]: 8 µg/mL; MIC, column B [2]: 4 µg/mL; MIC, column C [3]: 32 µg/mL; MIC, column D [4]: 2 µg/mL; MIC, column E [5]: 4 µg/mL; MIC, column F [6]: 2 µg/mL; MIC, column G [7]: 64 µg/mL; MIC, column H [8]: 2 µg/mL |
| 4-{[2-(3-chloro-6-methoxyquinolin-4-yl)ethyl]mino}-1-(3-phenylcyclobutyl) azepane-4-carboxylic acid [Example 152] |  |  |  | MIC, column B [2]: 0.125 µg/mL; MIC, column C [3]: 1 µg/mL and 2 µg/mL; MIC, column D [4]: <=.0625 μg/ml; MIC, column F [6]: <=.0625 μg/ml; MIC, column G [7]: 2 µg/mL; MIC, column H [8]: 0.125 µg/mL |
| COC(=O)[C@H]1CN(C[C@@H]2C[C@H]2c2ccccc2)CC[C@H]1CCC(O)c1ccnc2ccc(OC)cc12 (mixture of isomers) [Example 5, methyl (3R,4R)-4-[3-hydroxy-3-(6-methoxyquinolin-4-yl)propyl]-1-{[(trans)-2-phenylcyclopropyl]methyl}piperidine-3-carboxylate] | 4 | 64 | 8 | MIC [1]: 2 µg/mL; MIC ([2]; Staphylococcus aureus, 1146, Staph aureus 1146, Assay 1, no serum): 4 µg/mL; MIC ([3]; Staphylococcus aureus, 1146, Staph aureus 1146, Assay 1, 50% human serum, read-out: MIC, column C): 32 µg/mL; MIC ([4]; Staphylococcus aureus, 2811, Staph aureus 2811, Assay 1, no serum): 8 µg/mL; MIC [5]: 4 µg/mL |
| COc1ccc2nccc(C(O)CC[C@@H]3CCN(C4CC(c5ccccc5)C4)C[C@@H]3C(=O)O)c2c1 (single isomer, unassigned) [Example 2] |  |  |  | MIC [1]: 0.25 µg/mL (≈ 0.527 µM); MIC, column B [2]: <=.0625 μg/ml; MIC, column C [3]: 0.4629 µg/mL (≈ 0.975 µM); MIC, column D [4]: <=.0884 μg/ml; MIC [5]: 0.158 µg/mL (≈ 0.332 µM); MIC, column F [6]: 0.125 µg/mL (≈ 0.263 µM); MIC, column G [7]: 0.5 µg/mL (≈ 1.05 µM); MIC, column H [8]: <=.0625 μg/ml |
| COc1ccc2nccc(C(O)CC[C@@H]3CCN(C4CC(c5ccccc5)C4)C[C@@H]3C(=O)O)c2c1 (single isomer, unassigned) [Example 3] |  |  |  | MIC, column A [1]: 0.25 µg/mL (≈ 0.527 µM); MIC, column B [2]: <=.1768 μg/ml; MIC, column C [3]: 1.7818 µg/mL (≈ 3.75 µM); MIC, column D [4]: <=.25 μg/ml; MIC, column E [5]: 0.25 µg/mL (≈ 0.527 µM); MIC, column F [6]: 0.5 µg/mL (≈ 1.05 µM); MIC, column G [7]: 4 µg/mL (≈ 8.43 µM); MIC, column H [8]: 0.5 µg/mL (≈ 1.05 µM) |
| COc1ccc2nccc(C(O)CC[C@@H]3CCN(C4CC(c5ccccc5)C4)C[C@@H]3C(=O)O)c2c1 (single isomer, unassigned) [Example 4] |  | 4 (≈ 8.43 µM) |  | MIC, column A [1]: 2 µg/mL (≈ 4.21 µM); MIC, column B [2]: 1 µg/mL (≈ 2.11 µM); MIC, column C [3]: 4 µg/mL (≈ 8.43 µM); MIC, column D [4]: 1 µg/mL (≈ 2.11 µM); MIC, column E [5]: 1 µg/mL (≈ 2.11 µM); MIC, column F [6]: 0.5 µg/mL (≈ 1.05 µM); MIC, column H [8]: 0.5 µg/mL (≈ 1.05 µM) |
| COC(=O)[C@H]1CN(CC2Cc3ccccc3C2)CC[C@H]1CCC(O)c1ccnc2ccc(OC)cc12 (stereo partly drawn) [Example 82, (3R,4R)-methyl 1-((2,3-dihydro-1H-inden-2-yl)methyl)-4-(3-hydroxy-3-(6-methoxyquinolin-4-yl)propyl)piperidine-3-carboxylate] | 8 (≈ 16.4 µM) | 32 (≈ 65.5 µM) | 16 (≈ 32.7 µM) |  |
| COc1ccc2nccc(C(O)CC[C@@H]3CCN(CC4Cc5ccccc5C4)C[C@@H]3C(=O)O)c2c1 (stereo partly drawn) [Example 83, (3R,4R)-1-((2,3-dihydro-1H-inden-2-yl)methyl)-4-(3-hydroxy-3-(6-methoxyquinolin-4-yl)propyl)piperidine-3-carboxylic acid] | 8 (≈ 16.9 µM) | 64 (≈ 135 µM) | 8 (≈ 16.9 µM) |  |
| COc1ccc2nccc(C(O)CC[C@@H]3CCN(CC4(O)Cc5ccccc5C4)C[C@@H]3C(=O)O)c2c1 (stereo partly drawn) [Example 84, (3R,4R)-1-((2-hydroxy-2,3-dihydro-1H-inden-2-yl)methyl)-4-(3-hydroxy-3-(6-methoxyquinolin-4-yl)propyl)piperidine-3-carboxylic acid] | > 64 | > 64 | > 64 |  |
| COc1ccc2nccc(C(O)CC[C@@H]3CCN(CC4CCc5nc(C(C)C)ncc5C4)C[C@@H]3C(=O)O)c2c1 (stereo partly drawn) [Example 116, (3R,4R)-4-[3-hydroxy-3-(6-methoxyquinolin-4-yl)propyl]-1-[(2-isopropyl-5,6,7,8-tetrahydroquinazolin-6-yl)methyl]piperidine-3-carboxylic acid] | > 64 | > 64 | > 64 |  |
| COc1ccc2nccc(C(O)CC[C@@H]3CCN(CC4CCc5nc(CC6CC6)ncc5C4)C[C@@H]3C(=O)O)c2c1 (stereo partly drawn) [Example 117, (3R,4R)-1-{[2-(cyclopropylmethyl)-5,6,7,8-tetrahydroquinazolin-6-yl]methyl}-4-[3-hydroxy-3-(6-methoxyquinolin-4-yl)propyl]piperidine-3-carboxylic acid] | > 64 | > 64 | > 64 |  |
| COc1ccc2nccc(C(O)CC[C@@H]3CCN(CC4CCc5nc(-c6ccccc6)ncc5C4)C[C@@H]3C(=O)O)c2c1 (stereo partly drawn) [Example 118, (3R,4R)-4-[3-hydroxy-3-(6-methoxyquinolin-4-yl)propyl]-1-[(2-phenyl-5,6,7,8-tetrahydroquinazolin-6-yl)methyl]piperidine-3-carboxylic acid] | > 64 | > 64 | > 64 |  |
| COc1ccc2nccc(C(O)CC[C@@H]3CCN(CC4CCc5nc(-c6cnccn6)ncc5C4)C[C@@H]3C(=O)O)c2c1 (stereo partly drawn) [Example 119, (3R,4R)-4-[3-hydroxy-3-(6-methoxyquinolin-4-yl)propyl]-1-[(2-pyrazin-2-yl-5,6,7,8-tetrahydroquinazolin-6-yl)methyl]piperidine-3-carboxylic acid] | > 64 | > 64 | > 64 |  |
| COc1ccc2nccc(C(O)CC[C@@H]3CCN(CC4CCc5nc(N6CCCCC6)ncc5C4)C[C@@H]3C(=O)O)c2c1 (stereo partly drawn) [Example 120, (3R,4R)-4-[3-hydroxy-3-(6-methoxyquinolin-4-yl)propyl]-1-[(2-piperidin-1-yl-5,6,7,8-tetrahydroquinazolin-6-yl)methyl]piperidine-3-carboxylic acid] | > 64 | > 64 | > 64 |  |
| COC(=O)[C@H]1CN(C2CN(c3ccccn3)C2)CC[C@H]1CCC(O)c1ccnc2ccc(OC)cc12 (stereo partly drawn) [Example 124, methyl (3R,4R)-4-[3-hydroxy-3-(6-methoxyquinolin-4-yl)propyl]-1-(1-pyridin-2-ylazetidin-3-yl)piperidine-3-carboxylate] | > 64 | > 64 | > 64 |  |
| COc1ccc2nccc(C(O)CC[C@@H]3CCN(C4CN(c5ccccn5)C4)C[C@@H]3C(=O)O)c2c1 (stereo partly drawn) [Example 125, (3R,4R)-4-[3-hydroxy-3-(6-methoxyquinolin-4-yl)propyl]-1-(1-pyridin-2-ylazetidin-3-yl)piperidine-3-carboxylic acid] | > 64 | > 64 | 32 (≈ 67.1 µM) |  |
| COc1ccc2ncc(Cl)c(CCNC3(C(=O)O)CCCN(CC4CCc5nc(C)ncc5C4)CC3)c2c1 (stereo not shown) [Example 158, 4-{[2-(3-chloro-6-methoxyquinolin-4-yl)ethyl]amino}-1-[(2-methyl-5,6,7,8-tetra hydroquinazolin-6-yl)methyl]azepane-4-carboxylic acid] | 32 (≈ 59.5 µM) | > 64 | 32 (≈ 59.5 µM) |  |
| COc1ccc2nccc([C@@H](O)CNC3(C(=O)O)CCCN(C4CC(c5ccccc5)C4)CC3)c2n1 (stereo partly drawn) [Example 159, 4-{[(2R)-2-hydroxy-2-(6-methoxy-1,5-naphthyridin-4-yl)ethyl]amino}1-(3-phenylcyclobutyl)azepane-4-carboxylic acid] | 4 (≈ 8.15 µM) | 16 (≈ 32.6 µM) | 4 (≈ 8.15 µM) |  |
| COC(=O)C1(NC[C@H](O)c2ccnc3ccc(OC)nc23)CCCN(C2CC(c3ccccc3)C2)CC1 (stereo partly drawn) [Example 160, methyl 4-((R)-2-hydroxy-2-(6-methoxy-1,5-naphthyridin-4-yl)ethylamino)-1-(3-phenylcyclobutyl)azepane-4-carboxylate] | 2 (≈ 3.96 µM) | 4 (≈ 7.93 µM) | 2 (≈ 3.96 µM) |  |
